Source: patent publication US20240343704A1, “HALO-SUBSTITUTED AMINO PYRIDINE COMPOUNDS AS INHIBITORS OF THE HAEMATOPOIETIC PROGENITOR KINASE 1 (HPK1)” (priority 2021, published 2024)

Legend:
[1] = biological target: T1, Recombinant (1-346) HPK1 (h) (Homo sapiens, UniProt Q92918); test: HPK1 Human STE Kinase Enzymatic Radiometric Assay; format: biochemical; conditions: read-out: HPK1 IC50 nM Range*
T1 construct: Recombinant (1-346) HPK1 (h) is incubated with 8 mM MOPS pH 7.0
T1 sequence (Q92918 1-346): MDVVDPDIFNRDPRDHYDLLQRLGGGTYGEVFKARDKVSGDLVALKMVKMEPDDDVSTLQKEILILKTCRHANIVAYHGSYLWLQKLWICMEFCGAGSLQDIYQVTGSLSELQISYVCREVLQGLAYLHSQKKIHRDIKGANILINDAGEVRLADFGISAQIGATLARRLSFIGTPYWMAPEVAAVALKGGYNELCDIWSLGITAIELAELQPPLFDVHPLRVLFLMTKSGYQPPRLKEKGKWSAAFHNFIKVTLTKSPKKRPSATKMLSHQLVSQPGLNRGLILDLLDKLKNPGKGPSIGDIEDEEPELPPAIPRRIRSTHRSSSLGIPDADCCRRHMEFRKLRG
Protocol: A stock solution of 10 mM of test compound is prepared in DMSO. The compound plate was prepared by 3-fold and 9-point serial dilutions. […] The reaction is initiated by The addition of the Mg/ATP mix. After incubation for 40 minutes at RT, the reaction is stopped by the addition of phosphoric acid to a concentration of 0.5%.

Lck (h) = Lck (h) (Homo sapiens, UniProt P06239); test: Lck Human  Kinase Enzymatic Radiometric Assay; format: biochemical; conditions: read-out: Lck IC50 nM Range*
How it was run: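 Substrate 33P-incorporation measured by scintillation counting after spotting on P30 filtermat and phosphoric acid washes. Human Lck reacted 40 min at RT in 50 mM Tris pH 7.5 with 10 mM MgAcetate, [gamma-33P]-ATP, 250 uM Cdc2 peptide, 0.1 mM EGTA and 0.1 mM Na3VO4.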

Sequence of Lck (h) (P06239 whole entry): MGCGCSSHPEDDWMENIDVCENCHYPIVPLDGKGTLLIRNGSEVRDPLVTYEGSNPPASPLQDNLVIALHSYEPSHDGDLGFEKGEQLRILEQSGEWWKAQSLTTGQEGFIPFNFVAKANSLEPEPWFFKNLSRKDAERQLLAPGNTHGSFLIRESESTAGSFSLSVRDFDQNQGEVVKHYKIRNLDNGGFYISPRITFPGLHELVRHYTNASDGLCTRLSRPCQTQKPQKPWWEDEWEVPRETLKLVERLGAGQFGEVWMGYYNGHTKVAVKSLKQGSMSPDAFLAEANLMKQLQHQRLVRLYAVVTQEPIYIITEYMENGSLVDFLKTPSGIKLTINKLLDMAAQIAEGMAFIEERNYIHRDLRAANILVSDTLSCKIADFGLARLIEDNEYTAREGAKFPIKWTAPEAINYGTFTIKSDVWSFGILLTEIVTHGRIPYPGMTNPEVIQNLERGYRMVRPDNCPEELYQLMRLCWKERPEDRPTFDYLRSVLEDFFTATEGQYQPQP

Structure (SMILES)	IC50 [1] [nM]	IC50 (Lck (h)) [nM]
CCN1CC=C(c2ccc(-c3cc(-c4ccc5c(c4)CCNC5=O)c(N)nc3F)cc2)CC1 [I-76, 6-(2-amino-5-(4-(1-ethyl-1,2,3,6-tetrahydropyridin-4-yl)phenyl)-6-fluoropyridin-3-yl)-3,4-dihydroisoquinolin-1(2H)-one]	0.1 to 10	> 1000
CC(C)[C@H]1CN(c2ccc(-c3cc(-c4cc5c(cn4)C(=O)NCC5)c(N)nc3F)cc2)CCO1 [I-77, (S)-6-(2-amino-6-fluoro-5-(4-(2-isopropylmorpholino)phenyl)pyridin-3-yl)-3,4-dihydro-2,7-naphthyridin-1(2H)-one 2,2,2-trifluoroacetate]	0.1 to 10	> 1000
Nc1nc(F)c(-c2ccc(C3CCCN(CC(F)F)C3)cc2)cc1-c1ccc2c(c1)CCNC2=O (centres unmarked) [I-78, 6-(2-amino-5-(4-(1-(2,2-difluoroethyl)piperidin-3-yl)phenyl)-6-fluoropyridin-3-yl)-3,4-dihydroisoquinolin-1(2H)-one]	0.1 to 10	> 1000
CC(C)N1CCC(c2ccc(-c3cc(-c4ccc5c(c4)CCNC5=O)c(N)nc3F)cc2)CC1 [I-79, 6-(2-amino-6-fluoro-5-(4-(1-isopropylpiperidin-4-yl)phenyl)pyridin-3-yl)-3,4-dihydroisoquinolin-1(2H)-one]	0.1 to 10	> 1000
CC(C)N1CCCC(c2ccc(-c3cc(-c4ccc5c(c4)CCNC5=O)c(N)nc3F)cc2)C1 (centres unmarked) [I-80, 6-(2-amino-6-fluoro-5-(4-(1-isopropylpiperidin-3-yl)phenyl)pyridin-3-yl)-3,4-dihydroisoquinolin-1(2H)-one]	0.1 to 10	> 1000
CC(C)N1CC=C(c2ccc(-c3cc(-c4ccc5c(c4)CCNC5=O)c(N)nc3F)cc2)CC1 [I-81, 6-(2-amino-6-fluoro-5-(4-(1-isopropyl-1,2,3,6-tetrahydropyridin-4-yl)phenyl)pyridin-3-yl)-3,4-dihydroisoquinolin-1(2H)-one]	0.1 to 10	> 1000
Nc1nc(F)c(-c2ccc(C3CCCN(CCO)C3)cc2)cc1-c1ccc2c(c1)CCNC2=O (centres unmarked) [I-82, 6-(2-amino-6-fluoro-5-(4-(1-(2-hydroxyethyl)piperidin-3-yl)phenyl)pyridin-3-yl)-3,4-dihydroisoquinolin-1(2H)-one]	0.1 to 10	> 1000
CC(C)(C)OC(=O)N1CCC(S(=O)(=O)c2ccc(-c3cc(-c4ccc5c(c4)CCNC5=O)c(N)nc3F)cc2)CC1 [I-83, tert-butyl 4-((4-(6-amino-2-fluoro-5-(1-oxo-1,2,3,4-tetrahydroisoquinolin-6-yl)pyridin-3-yl)phenyl)sulfonyl)piperidine-1-carboxylate]	11 to 100	> 1000
Nc1nc(F)c(-c2ccc(S(=O)(=O)C3CNC3)cc2)cc1-c1ccc2c(c1)CCNC2=O [I-84, 6-(2-amino-5-(4-(azetidin-3-ylsulfonyl)phenyl)-6-fluoropyridin-3-yl)-3,4-dihydroisoquinolin-1(2H)-one]	11 to 100	> 1000
CCS(=N)(=O)c1ccc(-c2cc(-c3ccc4c(c3)CCNC4=O)c(N)nc2F)cc1 (centres unmarked) [I-85, 6-(2-amino-5-(4-(ethylsulfonimidoyl)phenyl)-6-fluoropyridin-3-yl)-3,4-dihydroisoquinolin-1(2H)-one]	11 to 100	> 1000
CS(=N)(=O)c1ccc(-c2cc(-c3ccc4c(c3)CCNC4=O)c(N)nc2F)cc1 (centres unmarked) [I-86, 6-(2-amino-6-fluoro-5-(4-(S-methylsulfonimidoyl)phenyl)pyridin-3-yl)-3,4-dihydroisoquinolin-1(2H)-one]	0.1 to 10	> 1000
Nc1nc(F)c(-c2ccc(S(=O)(=O)C(F)(F)F)cc2)cc1-c1ccc2c(c1)CCNC2=O [I-87, 6-(2-amino-6-fluoro-5-(4-((trifluoromethyl)sulfonyl)phenyl)pyridin-3-yl)-3,4-dihydroisoquinolin-1(2H)-one]	11 to 100	> 1000
CC1CN(c2ccc(-c3cc(-c4ccc5c(c4)CCNC5=O)c(N)nc3F)cc2)CCN1C (centres unmarked) [I-88, 6-(2-amino-5-(4-(3,4-dimethylpiperazin-1-yl)phenyl)-6-fluoropyridin-3-yl)-3,4-dihydroisoquinolin-1(2H)-one]	0.1 to 10	> 1000
Nc1nc(F)c(-c2ccc(C3CCCN(CC(F)(F)F)C3)cc2)cc1-c1ccc2c(c1)CCNC2=O (centres unmarked) [I-89, 6-(2-amino-6-fluoro-5-(4-(1-(2,2,2-trifluoroethyl)piperidin-3-yl)phenyl)pyridin-3-yl)-3,4-dihydroisoquinolin-1(2H)-one]	11 to 100	> 1000
Nc1nc(F)c(-c2ccc(C3CN(CC(F)(F)F)CCO3)cc2)cc1-c1ccc2c(c1)CCNC2=O (centres unmarked) [I-90, 6-(2-amino-6-fluoro-5-(4-(4-(2,2,2-trifluoroethyl)morpholin-2-yl)phenyl)pyridin-3-yl)-3,4-dihydroisoquinolin-1(2H)-one]	11 to 100	> 1000
Nc1nc(F)c(-c2ccc(N3C[C@H]4COC[C@H]4C3)cc2)cc1-c1ccc2c(c1)CCNC2=O [I-91, 6-(2-amino-6-fluoro-5-(4-((3aR,6aS)-tetrahydro-1H-furo[3,4-c]pyrrol-5(3H)-yl)phenyl)pyridin-3-yl)-3,4-dihydroisoquinolin-1(2H)-one]	11 to 100	> 1000
Nc1nc(F)c(-c2ccc(N3C[C@@H]4CCO[C@@H]4C3)cc2)cc1-c1ccc2c(c1)CCNC2=O [I-92, 6-(2-amino-6-fluoro-5-(4-((3aS,6aS)-hexahydro-5H-furo[2,3-c]pyrrol-5-yl)phenyl)pyridin-3-yl)-3,4-dihydroisoquinolin-1(2H)-one]	0.1 to 10	> 1000
Nc1nc(F)c(-c2ccc(C3CCCCN3CC(F)(F)F)cc2)cc1-c1ccc2c(c1)CCNC2=O (centres unmarked) [I-93, 6-(2-amino-6-fluoro-5-(4-(1-(2,2,2-trifluoroethyl)piperidin-2-yl)phenyl)pyridin-3-yl)-3,4-dihydroisoquinolin-1(2H)-one]	11 to 100	> 1000
Nc1nc(F)c(-c2ccc(O[C@H]3CCCNC3)cc2)cc1-c1ccc2c(c1)CCNC2=O [I-94, (S)-6-(2-amino-6-fluoro-5-(4-(piperidin-3-yloxy)phenyl)pyridin-3-yl)-3,4-dihydroisoquinolin-1(2H)-one]	0.1 to 10	> 1000
CC(C)N1CCN(c2ccc(-c3cc(-c4cc5c(cc4F)C(=O)NCC5)c(N)nc3F)cc2)CC1 [I-95, 6-(2-amino-6-fluoro-5-(4-(4-isopropylpiperazin-1-yl)phenyl)pyridin-3-yl)-7-fluoro-3,4-dihydroisoquinolin-1(2H)-one]	0.1 to 10	> 1000
C[C@@H]1CN(c2ccc(-c3cc(-c4ccc5c(c4)CCNC5=O)c(N)nc3F)cc2)C[C@H](C)N1C [I-96, 6-(2-amino-6-fluoro-5-(4-((3R,5S)-3,4,5-trimethylpiperazin-1-yl)phenyl)pyridin-3-yl)-3,4-dihydroisoquinolin-1(2H)-one]	0.1 to 10	> 1000
C[C@H]1CN(c2ccc(-c3cc(-c4ccc5c(c4)CCNC5=O)c(N)nc3F)cc2)C[C@H](C)N1C [I-97, 6-(2-amino-6-fluoro-5-(4-((3S,5S)-3,4,5-trimethylpiperazin-1-yl)phenyl)pyridin-3-yl)-3,4-dihydroisoquinolin-1(2H)-one]	0.1 to 10	> 1000
